Our source for the IC50 values is ChEMBL document CHEMBL1149702, “Toward novel HIV-1 integrase binding inhibitors: molecular modeling, synthesis, and biological studies” (Bioorg Med Chem Lett, 2007).

pIC50: −log10 of the molar value. Where only a bound is given, the exact number is not on record here.

In the test the target is Human immunodeficiency virus type 1 integrase (Human immunodeficiency virus 1, UniProt Q7ZJM1). Put plainly: Inhibition of HIV1 integrase.
Human immunodeficiency virus type 1 integrase, sequence (Q7ZJM1 whole entry): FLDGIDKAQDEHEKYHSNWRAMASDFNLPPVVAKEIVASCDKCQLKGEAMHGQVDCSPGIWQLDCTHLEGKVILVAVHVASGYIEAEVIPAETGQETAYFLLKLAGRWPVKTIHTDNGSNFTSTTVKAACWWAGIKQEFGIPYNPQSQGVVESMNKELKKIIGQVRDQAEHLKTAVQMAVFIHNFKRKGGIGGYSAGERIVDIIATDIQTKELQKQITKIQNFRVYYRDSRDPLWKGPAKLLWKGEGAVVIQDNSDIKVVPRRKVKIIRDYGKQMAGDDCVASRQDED
Broadly, the pIC50 is the IC50 on a negative log10 scale, so that one unit is a factor of ten. Lower therefore signals a high IC50. `N#CC(=Cc1ccc(-c2cccc(C(=O)O)c2)o1)c1nc2ccccc2[nH]1` gave a pIC50 of 3.79.

For `N#CC(=Cc1ccc(-c2cc([N+](=O)[O-])ccc2Cl)o1)c1nc2ccccc2[nH]1`, the pIC50 is 4.23.

Molecule `O=[N+]([O-])c1cccc(-c2ccc(/C=C/c3nc4ccccc4[nH]3)o2)c1` had a pIC50 of 4.92. Molecule `N#CC(=Cc1ccc(-c2ccc(Cl)c(C(=O)O)c2)o1)c1nc2ccccc2[nH]1` showed a pIC50 of 4.04. `N#CC(=Cc1ccc(-c2ccc(C(=O)O)cc2)o1)c1nc2ccccc2[nH]1` showed a pIC50 of less than 3.55. The figure for `Cc1ccc(C(=O)O)cc1-c1ccc(C=C(C#N)c2nc3ccccc3[nH]2)o1` is 4.40. `N#CC(=Cc1ccc(-c2ccc(O)c(C(=O)O)c2)o1)c1nc2ccccc2[nH]1` had a pIC50 of 4.16. `N#CC(=Cc1ccc(-c2ccc(Cl)cc2)o1)c1nc2ccccc2[nH]1`: the pIC50 is less than 3.54. `O=[N+]([O-])c1ccccc1-c1ccc(/C=C/c2nc3ccccc3[nH]2)o1` showed a pIC50 of less than 3.52. Then `Cc1c(-c2ccc(/C=C/c3nc4ccccc4[nH]3)o2)cccc1[N+](=O)[O-]`, with less than 3.54; and `O=[N+]([O-])c1cc(Cl)ccc1-c1ccc(/C=C/c2nc3ccccc3[nH]2)o1`, with less than 3.56; and `Cc1c(-c2ccc(C=C(C#N)c3nc4ccccc4[nH]3)o2)cccc1[N+](=O)[O-]`, with 4.07. Consider `N#CC(=Cc1ccc(-c2ccccc2[N+](=O)[O-])o1)c1nc2ccccc2[nH]1`, for which the pIC50 was less than 3.55. The molecule `C/C(=C\c1ccc(-c2ccc(Cl)cc2[N+](=O)[O-])o1)c1nc2ccccc2[nH]1` gave a pIC50 of less than 3.58.

Molecule `FC(F)(F)c1cccc(Cl)c1-c1ccc(/C=C/c2nc3ccccc3[nH]2)o1` showed a pIC50 of less than 3.59. On to `N#C/C(=C\c1ccc(-c2c(Cl)cccc2C(F)(F)F)o1)c1nc2ccccc2o1`, for which the pIC50 is less than 3.62. The figure for `N#CC(=Cc1ccc(-c2ccc(C(=O)O)c(O)c2)o1)c1nc2ccccc2[nH]1` is 4.15. Then `N#CC(=Cc1ccc(-c2ccc(F)cc2C(=O)O)o1)c1nc2ccccc2[nH]1`, with less than 3.57; and `N#CC(=Cc1ccc(-c2cccc([N+](=O)[O-])c2)o1)c1nc2ccccc2[nH]1`, with less than 3.55. Regarding `N#CC(=Cc1ccc(-c2cc(C(F)(F)F)ccc2Cl)o1)c1nc2ccccc2[nH]1`, the pIC50 was 4.50. Molecule `N#C/C(=C\c1ccc(-c2c(Cl)cccc2C(F)(F)F)o1)c1nc2ccccc2s1` showed a negative logarithm of the IC50 (pIC50) of less than 3.63. The figure for `N#C/C(=C\c1ccc(-c2ccc(Cl)cc2[N+](=O)[O-])o1)c1nc2ccccc2s1` is less than 3.61; for `N#C/C(=C\c1ccc(-c2cccc([N+](=O)[O-])c2)o1)c1nc2ccccc2s1` it is less than 3.57; for `Cc1ccc2[nH]c(C(C#N)=Cc3ccc(-c4ccc(Cl)cc4C(=O)O)o3)nc2c1` it is 4.44. As for `COc1c(C)cc(-c2ccc(C=C(C#N)c3nc4ccccc4[nH]3)o2)cc1C`, the pIC50 is less than 3.57.

The molecule `CC(C)(C)OC(=O)Nc1ccc(-c2ccc(C=C(C#N)c3nc4ccccc4[nH]3)o2)cc1` had a pIC50 of less than 3.63. Consider `NC(=O)/C(=C\c1ccc(-c2ccc(Cl)cc2[N+](=O)[O-])o1)c1nc2ccccc2[nH]1`, for which the negative-log IC50 (pIC50) was less than 3.61. The figure for `N#C/C(=C\c1ccc(-c2cccc([N+](=O)[O-])c2)o1)c1nc2ccccc2o1` is less than 3.55; for `COc1c(C)cc(-c2ccc(/C=C/c3nc4ccccc4[nH]3)o2)cc1C` it is less than 3.54. `COc1ccc(-c2ccc(C=C(C#N)c3nc4ccccc4[nH]3)o2)cn1` gave a pIC50 of less than 3.53.
